Laboratory results taken from ChEMBL document CHEMBL3885861, “Open TG-GATES”.

Organism: Rattus norvegicus
Assay: Open TG-GATES - Regimen: Single
Assay type: toxicity, organism-based, Sprague-Dawley
Parameters: regimen Single, gender Male, age 6 weeks
Settings: in vivo, po, 10 mg/kg, route gavage, dose level Middle; for APTT / Bas / Eos / Fbg / Hb / Ht / Lym / MCH / MCHC / MCV / Mono / Neu / PT / Plat / RBC / Ret / WBC: tissue Blood; for KIDNEY_L / KIDNEY_R / KIDNEY_TOTAL: tissue Kidney; for LIVER: tissue Liver; for A/G / ALP / ALT / AST / BUN / CRE / Ca / Cl / DBIL / GLC / IP / K / LDH / Na / PL / RALB / TBIL / TC / TG / TP / gamma-GTP: tissue Plasma

`Nc1c2c(nc3ccccc13)CCCC2` [TACRINE] showed a TERMINAL_BW (3 h) of 204.5 g, an APTT (3 h) of 22.1 s and a Bas (3 h) of 0%. It also gave an Eos (3 h) of 0.8%, a Fbg (3 h) of 297.8 mg/dL and a Hb (3 h) of 13.3 g/dL. It also gave a Ht (3 h) of 38.8%, a Lym (3 h) of 70% and an MCH (3 h) of 21.2 pg. It also gave an MCHC (3 h) of 34.4%, an MCV (3 h) of 61.5 fL and a Mono (3 h) of 2.2%. For the same compound, the Neu (3 h) was 26.8%, the PT (3 h) was 16.5 s and the Plat (3 h) was 123.9 x10_4/uL. For the same compound, the RBC (3 h) was 630.4 x10_4/ul, the Ret (3 h) was 8.5% and the WBC (3 h) was 68 x10_2/uL. For the same compound, the KIDNEY_L (3 h) was 0.9 g, the KIDNEY_R (3 h) was 0.9 g and the KIDNEY_TOTAL (3 h) was 1.8 g. The LIVER (3 h) was 9.4 g, the A/G (3 h) was 1.3 and the ALP (3 h) was 1472.8 IU/L. The ALT (3 h) was 45 IU/L, the AST (3 h) was 90.4 IU/L and the BUN (3 h) was 11.8 mg/dL. For the same compound, the CRE (3 h) was 0.2 mg/dL, the Ca (3 h) was 10.6 mg/dL and the Cl (3 h) was 106.4 meq/L. For the same compound, the DBIL (3 h) was 0.006 mg/dL, the GLC (3 h) was 213.4 mg/dL and the IP (3 h) was 8.7 mg/dL. The K (3 h) was 3.7 meq/L, the LDH (3 h) was 205.8 IU/L and the Na (3 h) was 141.8 meq/L. It also gave a PL (3 h) of 140.4 mg/dL, an RALB (3 h) of 3.2 g/dL and a TBIL (3 h) of 0.03 mg/dL. It also gave a TC (3 h) of 74.6 mg/dL, a TG (3 h) of 66.6 mg/dL and a TP (3 h) of 5.8 g/dL. The gamma-GTP (3 h) was 1 IU/L, the TERMINAL_BW (6 h) was 199.6 g and the APTT (6 h) was 19.8 s. It also gave a Bas (6 h) of 0%, an Eos (6 h) of 0.6% and a Fbg (6 h) of 317.2 mg/dL. It also gave a Hb (6 h) of 13.6 g/dL, a Ht (6 h) of 39.5% and a Lym (6 h) of 75.4%. The MCH (6 h) was 21 pg, the MCHC (6 h) was 34.4% and the MCV (6 h) was 60.8 fL. It also gave a Mono (6 h) of 2%, a Neu (6 h) of 21.2% and a PT (6 h) of 15.6 s. The Plat (6 h) was 119.2 x10_4/uL, the RBC (6 h) was 649.6 x10_4/ul and the Ret (6 h) was 7.8%. For the same compound, the WBC (6 h) was 74.9 x10_2/uL, the KIDNEY_L (6 h) was 0.9 g and the KIDNEY_R (6 h) was 0.9 g. It also gave a KIDNEY_TOTAL (6 h) of 1.8 g, an LIVER (6 h) of 8.5 g and an A/G (6 h) of 1.3. For the same compound, the ALP (6 h) was 1669.4 IU/L, the ALT (6 h) was 41.8 IU/L and the AST (6 h) was 82.4 IU/L. It also gave a BUN (6 h) of 10.6 mg/dL, a CRE (6 h) of 0.2 mg/dL and a Ca (6 h) of 10.6 mg/dL. For the same compound, the Cl (6 h) was 107.4 meq/L, the DBIL (6 h) was 0.002 mg/dL and the GLC (6 h) was 201.2 mg/dL. For the same compound, the IP (6 h) was 8.8 mg/dL, the K (6 h) was 4.4 meq/L and the LDH (6 h) was 290.6 IU/L. For the same compound, the Na (6 h) was 141.8 meq/L, the PL (6 h) was 161 mg/dL and the RALB (6 h) was 3.1 g/dL. For the same compound, the TBIL (6 h) was 0.028 mg/dL, the TC (6 h) was 82.2 mg/dL and the TG (6 h) was 50.8 mg/dL. The TP (6 h) was 5.5 g/dL, the gamma-GTP (6 h) was 1 IU/L and the TERMINAL_BW (9 h) was 197 g. The APTT (9 h) was 21.5 s, the Bas (9 h) was 0% and the Eos (9 h) was 1%. The Fbg (9 h) was 312.4 mg/dL, the Hb (9 h) was 13.4 g/dL and the Ht (9 h) was 38.9%. It also gave a Lym (9 h) of 76.2%, an MCH (9 h) of 21.4 pg and an MCHC (9 h) of 34.5%. It also gave an MCV (9 h) of 61.9 fL, a Mono (9 h) of 2.2% and a Neu (9 h) of 20%. It also gave a PT (9 h) of 15.9 s, a Plat (9 h) of 119.1 x10_4/uL and an RBC (9 h) of 628.6 x10_4/ul. It also gave a Ret (9 h) of 7.5%, a WBC (9 h) of 74.6 x10_2/uL and a KIDNEY_L (9 h) of 0.9 g. The KIDNEY_R (9 h) was 0.9 g, the KIDNEY_TOTAL (9 h) was 1.8 g and the LIVER (9 h) was 8.3 g. It also gave an A/G (9 h) of 1.3, an ALP (9 h) of 1332.6 IU/L and an ALT (9 h) of 42.6 IU/L. The AST (9 h) was 86.8 IU/L, the BUN (9 h) was 11.8 mg/dL and the CRE (9 h) was 0.1 mg/dL. It also gave a Ca (9 h) of 10.7 mg/dL, a Cl (9 h) of 107.4 meq/L and a DBIL (9 h) of 0.004 mg/dL. The GLC (9 h) was 183.8 mg/dL, the IP (9 h) was 9.7 mg/dL and the K (9 h) was 4.2 meq/L. For the same compound, the LDH (9 h) was 186.8 IU/L, the Na (9 h) was 142.2 meq/L and the PL (9 h) was 137.8 mg/dL. For the same compound, the RALB (9 h) was 3.1 g/dL, the TBIL (9 h) was 0.026 mg/dL and the TC (9 h) was 77 mg/dL. The TG (9 h) was 43.6 mg/dL, the TP (9 h) was 5.5 g/dL and the gamma-GTP (9 h) was 1 IU/L. For the same compound, the TERMINAL_BW (24 h) was 217.1 g, the APTT (24 h) was 21.1 s and the Bas (24 h) was 0%. The Eos (24 h) was 1%, the Fbg (24 h) was 305 mg/dL and the Hb (24 h) was 13.5 g/dL. The Ht (24 h) was 39.3%, the Lym (24 h) was 79% and the MCH (24 h) was 21.2 pg. The MCHC (24 h) was 34.4%, the MCV (24 h) was 61.6 fL and the Mono (24 h) was 3%. For the same compound, the Neu (24 h) was 15.8%, the PT (24 h) was 15.9 s and the Plat (24 h) was 116.9 x10_4/uL. For the same compound, the RBC (24 h) was 638 x10_4/ul, the Ret (24 h) was 7.4% and the WBC (24 h) was 98.6 x10_2/uL. The KIDNEY_L (24 h) was 1 g, the KIDNEY_R (24 h) was 1 g and the KIDNEY_TOTAL (24 h) was 2 g. The LIVER (24 h) was 9.7 g, the A/G (24 h) was 1.3 and the ALP (24 h) was 1669.4 IU/L. It also gave an ALT (24 h) of 40.4 IU/L, an AST (24 h) of 77.2 IU/L and a BUN (24 h) of 17 mg/dL. It also gave a CRE (24 h) of 0.2 mg/dL, a Ca (24 h) of 11 mg/dL and a Cl (24 h) of 106 meq/L. The DBIL (24 h) was 0.004 mg/dL, the GLC (24 h) was 183 mg/dL and the IP (24 h) was 7.9 mg/dL. For the same compound, the K (24 h) was 4.3 meq/L, the LDH (24 h) was 229 IU/L and the Na (24 h) was 141.4 meq/L. The PL (24 h) was 161.6 mg/dL, the RALB (24 h) was 3.1 g/dL and the TBIL (24 h) was 0.022 mg/dL. It also gave a TC (24 h) of 81 mg/dL, a TG (24 h) of 97 mg/dL and a TP (24 h) of 5.5 g/dL. For the same compound, the gamma-GTP (24 h) was 1 IU/L.
